# Results taken from patent publication WO2023231996A1, “Crystal forms of hydroxamic acid ester compound and salt thereof, and preparation method” (Shenzhen Chipscreen Biosciences Co Ltd, priority 2022, dated 2023).
# How the values were obtained:
# [1] = Hygroscopicity by dynamic moisture adsorption and desorption (DVS); format: physicochemical; conditions: humidity 50%-95%-0%-50%
# [2] = Crystal form by XRPD after DVS; format: physicochemical; conditions: humidity 50%-95%-0%-50%
# [3] = Solid-state stability by XRPD under stress, accelerated and room-temperature conditions; format: physicochemical; conditions: high temperature (60°C), high humidity (25°C/92.5%RH), accelerated (40°C/75%RH), room temperature (25°C/60%RH), open
# [4] = target: Tyk2 (Homo sapiens, UniProt P29597); conditions: recorded in PCT/CN2021/134929; cited from earlier work
# [5] = Thermodynamic stability by competitive slurry, XRPD (Example 34); format: physicochemical; conditions: suspended in saturated acetonitrile or MTBE solution, equal amounts of form E and form AH, 6 days
# [6] = light not given in the conclusion
# Sequence of Tyk2 (P29597 whole entry, species assumed): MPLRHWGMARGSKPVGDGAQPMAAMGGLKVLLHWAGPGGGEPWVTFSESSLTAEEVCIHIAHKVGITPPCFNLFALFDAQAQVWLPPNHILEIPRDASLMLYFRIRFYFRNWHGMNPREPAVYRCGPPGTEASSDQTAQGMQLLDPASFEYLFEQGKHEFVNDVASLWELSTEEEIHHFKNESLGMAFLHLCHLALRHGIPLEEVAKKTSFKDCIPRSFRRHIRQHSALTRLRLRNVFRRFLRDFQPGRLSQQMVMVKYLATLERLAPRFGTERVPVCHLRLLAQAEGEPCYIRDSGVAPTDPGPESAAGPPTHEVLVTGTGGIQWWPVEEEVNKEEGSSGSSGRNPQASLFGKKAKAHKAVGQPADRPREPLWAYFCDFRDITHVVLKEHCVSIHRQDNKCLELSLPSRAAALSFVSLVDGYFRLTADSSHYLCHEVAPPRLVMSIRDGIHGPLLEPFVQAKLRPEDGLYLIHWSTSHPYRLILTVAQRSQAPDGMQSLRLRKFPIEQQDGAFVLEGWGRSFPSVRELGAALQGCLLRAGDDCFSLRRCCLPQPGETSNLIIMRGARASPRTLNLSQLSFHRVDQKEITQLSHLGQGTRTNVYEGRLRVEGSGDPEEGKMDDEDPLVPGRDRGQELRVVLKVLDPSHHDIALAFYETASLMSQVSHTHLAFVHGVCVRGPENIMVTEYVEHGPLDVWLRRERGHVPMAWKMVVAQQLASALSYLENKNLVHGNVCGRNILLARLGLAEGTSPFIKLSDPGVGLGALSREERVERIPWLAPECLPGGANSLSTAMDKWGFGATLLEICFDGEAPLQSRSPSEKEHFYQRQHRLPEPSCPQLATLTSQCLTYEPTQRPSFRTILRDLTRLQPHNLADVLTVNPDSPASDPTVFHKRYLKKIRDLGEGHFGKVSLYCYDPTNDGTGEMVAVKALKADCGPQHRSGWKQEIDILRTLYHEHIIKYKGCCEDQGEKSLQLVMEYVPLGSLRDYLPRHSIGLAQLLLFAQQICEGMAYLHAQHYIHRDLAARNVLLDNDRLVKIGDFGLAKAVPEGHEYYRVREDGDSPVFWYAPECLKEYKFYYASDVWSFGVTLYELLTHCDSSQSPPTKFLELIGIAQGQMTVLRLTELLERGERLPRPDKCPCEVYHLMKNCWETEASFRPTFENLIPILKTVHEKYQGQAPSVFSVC
Compound,hygroscopicity [1],crystalline transformation before and after the DVS test [2],"stability [3, 6]",Tyk2 selective inhibitory activity [4],stability ([3]; light (25°C/4500Lux)),thermodynamic stability [5]
CCONC(=O)c1cnc(Nc2cc(C)nc(C)n2)cc1Nc1cccc(-c2ncccn2)c1OC.O=C(O)CC(O)(CC(=O)O)C(=O)O [citric acid eutectic crystal form Type A],almost no hygroscopicity,did not crystallize before and after the DVS test. type transformation,remains stable,,,
"CCONC(=O)c1cnc(Nc2cc(C)nc(C)n2)cc1Nc1cccc(-c2ncccn2)c1OC [compound represented by formula (I), 6-(((2,6-二甲基嘧啶-4-基)氨基)-N-乙氧基-4-((2-甲氧基-3-(嘧啶-2-基)苯基)氨基)烟酰胺]",,,,excellent Tyk2 selective inhibitory activity,,
CCONC(=O)c1cnc(Nc2cc(C)nc(C)n2)cc1Nc1cccc(-c2ncccn2)c1OC.O=C(O)/C=C\C(=O)O [maleate crystal form Type A],extremely hygroscopic,does not undergo crystalline transformation,remains stable,,,
CCONC(=O)c1cnc(Nc2cc(C)nc(C)n2)cc1Nc1cccc(-c2ncccn2)c1OC.O=C(O)CC(O)C(=O)O [malic acid eutectic crystal form Type A],slightly hygroscopic,did not crystallize before and after the DVS test. type transformation,remains stable,,,
CCONC(=O)c1cnc(Nc2cc(C)nc(C)n2)cc1Nc1cccc(-c2ncccn2)c1OC [unsolvated crystalline form AH],has hygroscopicity,did not undergo a crystalline transformation,,,remains stable,
CCONC(=O)c1cnc(Nc2cc(C)nc(C)n2)cc1Nc1cccc(-c2ncccn2)c1OC [unsolvated crystalline form E],no hygroscopicity,does not undergo a crystalline transformation,remains stable,,,higher stability than Form AH
